In ChEMBL document CHEMBL4831536, “Neuroregenerative Potential of Prenyl- and Pyranochalcones: A Structure-Activity Study” (J Nat Prod, 2021):
Active and inactive are the calls of the source. The rule behind the calls is not given here.

Key:
MEF [1] = assay: Cytotoxicity against NMRI mouse MEF cells assessed as effect on cell proliferation by measuring effect on renilla activity at 10 uM incubated for 3 days by luminescence based analysis; conditions: 72 h, time 3 day
MEF [2] = assay: Neuro-regenerative activity in NMRI mouse MEF cells transfected with human DCX promoter-driven firefly luciferase reporter assessed as induction of neuronal differentiation at 10 uM incubated for 3 days by luciferase reporter gene based luminescence analysis; type: functional, cell-based; conditions: time 3.0 day
MEF [3] = assay: Neuro-regenerative activity in NMRI mouse MEF cells transfected with human DCX promoter-driven firefly luciferase reporter assessed as induction of neuronal differentiation at 10 uM incubated for 3 days by luciferase reporter gene based luminescence analysis relative to control; type: functional; conditions: time 3 day

Structure (SMILES)	Activity (MEF [1])	Activity (MEF [2])	Ratio (MEF [3])
COc1cc2c(c(O)c1C(=O)/C=C/c1ccc(O)c(O)c1)C=CC(C)(C)O2	Non-Toxic	Active	–
COc1cc2c(c3c1C(=O)CC(c1ccc(O)cc1)O3)C=CC(C)(C)O2 (stereo not drawn)	–	Active	–
CC1(C)C=Cc2c(cc3c(c2O)C(=O)CC(c2ccc(O)cc2)O3)O1 (stereo not drawn)	–	Active	–
COc1cc(O)c(CC=C(C)C)c(O)c1C(=O)/C=C/c1ccc(O)cc1 [XANTHOHUMOL]	Toxic	–	5.55
COc1cc2c(c(O)c1C(=O)/C=C/c1ccc(O)cc1)C=CC(C)(CCC=C(C)C)O2 (stereo not drawn)	–	inactive	–
COc1cc2c(c(O)c1C(=O)/C=C/c1ccc(O)cc1)C=CC(C)(C)O2 [XANTHOHUMOL C]	Non-Toxic	–	1.56
CC1(C)C=Cc2c(cc(O)c3c2OC(c2ccc(O)cc2)CC3=O)O1 (stereo not drawn)	–	Active	–
COc1ccc(/C=C/C(=O)c2c(OC)cc3c(c2O)C=CC(C)(C)O3)cc1	–	Active	–
COc1cc2c(c(O)c1C(=O)/C=C/c1ccc3c(c1)OCO3)C=CC(C)(C)O2	–	Active	–
COc1cc2c(c(O)c1C(=O)/C=C/c1ccc(O)cc1)CCC(C)(C)O2	–	Active	–
